According to patent US20260285850A1, “SUBSTITUTED OXAZOLIDINONES AND IMIDAZOLINONES AS HERBICIDES” (FMC CORPORATION, priority 2023, published 2026):

How the values were obtained:
Assay type in all cases: in vivo
[1] = system: ducksalad (Heteranthera limosa); assay: Test B flooded paddy test, visual plant response rating 0-100; conditions: 250 g ai/ha, Flood, applied to paddy water, evaluated after 13 days
Outline: (§1)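 In this flooded assay, 2-leaf seedlings received compound through the water layer, kept at 3 cm over the soil. Plants were held 13 days in a greenhouse and then visually compared with control pots.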

[2] = system: barnyardgrass (Echinochloa crusgalli); assay: as above; conditions: 250 g ai/ha, Flood, applied to paddy water, evaluated after 13 days
Outline: as §1

[3] = system: sedge, umbrella (small-flower umbrella sedge, Cyperus difformis); assay: as above; conditions: 250 g ai/ha, Flood, applied to paddy water, evaluated after 13 days
Outline: as §1

[4] = system: rice (Oryza sativa); assay: as above; conditions: 250 g ai/ha, Flood, applied to paddy water, evaluated after 13 days
Outline: as §1

[5] = system: corn (Zea mays); assay: Test A postemergence application, visual injury rating 0-100
Outline: (§2)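 Compound in a non-phytotoxic, surfactant-containing solvent is applied either as a directed soil spray before seedlings emerge or onto emerged plants 2-10 cm tall; pots hold a loam-sand blend. Plants grow 10 days under greenhouse conditions and are rated by eye against untreated controls (0 no effect, 100 complete control).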

[6] = system: barnyardgrass (Echinochloa crus-galli); assay: as above
Outline: as §2

[7] = system: ragweed (common ragweed, Ambrosia artemisiifolia); assay: as above
Outline: as §2

[8] = system: kochia (Bassia scoparia); assay: as above
Outline: as §2

[9] = system: wheat (Triticum aestivum); assay: as above
Outline: as §2

[10] = system: palmer (palmer amaranth, palmer pigweed, Amaranthus palmeri); assay: as above
Outline: as §2

[11] = system: oat, wild (wild oat, Avena fatua); assay: as above
Outline: as §2

[12] = system: green foxtail (Setaria viridis); assay: as above
Outline: as §2

[13] = system: blackgrass (Alopecurus myosuroides); assay: as above
Outline: as §2

[14] = system: horseweed (Erigeron canadensis); assay: as above
Outline: as §2

[15] = system: ryegrass, Italian (italian ryegrass, Lolium multiflorum); assay: as above
Outline: as §2

[16] = system: soybean (Glycine max); assay: as above
Outline: as §2

[17] = system: corn (Zea mays); assay: Test A preemergence soil spray, visual injury rating 0-100; conditions: 10 days
Outline: as §2

[18] = system: barnyardgrass (Echinochloa crus-galli); assay: as above; conditions: 10 days
Outline: as §2

[19] = system: ragweed (common ragweed, Ambrosia artemisiifolia); assay: as above; conditions: 10 days
Outline: as §2

[20] = system: kochia (Bassia scoparia); assay: as above; conditions: 10 days
Outline: as §2

[21] = system: wheat (Triticum aestivum); assay: as above; conditions: 10 days
Outline: as §2

[22] = system: palmer (palmer amaranth, palmer pigweed, Amaranthus palmeri); assay: as above; conditions: 10 days
Outline: as §2

[23] = system: oat, wild (wild oat, Avena fatua); assay: as above; conditions: 10 days
Outline: as §2

[24] = system: green foxtail (Setaria viridis); assay: as above; conditions: 10 days
Outline: as §2

[25] = system: blackgrass (Alopecurus myosuroides); assay: as above; conditions: 10 days
Outline: as §2

[26] = system: ryegrass, Italian (italian ryegrass, Lolium multiflorum); assay: as above; conditions: 10 days
Outline: as §2

[27] = system: soybean (Glycine max); assay: as above; conditions: 10 days
Outline: as §2

[28] = 62 g ai/ha, postemergence, 10 days, 0 = no effect, 100 = complete control
[29] = Postemergence, 16 g ai/ha, greenhouse 10 days, 0 no effect, 100 complete control
[30] = 62 g ai/ha, 0 = no effect, 100 = complete control

`COC(=O)C1CC(NC(=O)C2(C)CN(c3cc(F)cc(Cl)c3)C(=O)O2)C1` (centres unmarked) [Compound 145] was tested, and the “Plant response rating, Ducksalad (0 to 100 scale, 0 is no effect and 100 is complete control)” value [1] was 60, the “Plant response rating, Barnyardgrass (0 to 100 scale, 0 is no effect and 100 is complete control)” value [2] was 60 and the “Plant response rating, Sedge, Umbrella (0 to 100 scale, 0 is no effect and 100 is complete control)” value [3] was 50. For the same compound, the “Plant response rating, Rice (0 to 100 scale, 0 is no effect and 100 is complete control)” value [4] was 40, the “Corn plant response rating (0-100)” value [5, 28] was 100 and the “Corn plant response rating (0 to 100 scale)” value [5, 29] was 100. For the same compound, the “Barnyardgrass plant response rating (0-100)” value [6, 28] was 100, the “Barnyardgrass plant response rating (0 to 100 scale)” value [6, 29] was 100 and the “Ragweed plant response rating (0-100)” value [7, 28] was 20. For the same compound, the “Ragweed plant response rating (0 to 100 scale)” value [7, 29] was 0, the “Kochia plant response rating (0-100)” value [8, 28] was 90 and the “Kochia plant response rating (0 to 100 scale)” value [8, 29] was 60. The “Wheat plant response rating (0-100)” value [9, 28] was 90, the “Wheat plant response rating (0 to 100 scale)” value [9, 29] was 90 and the “Pigweed, Palmer plant response rating (0-100)” value [10, 28] was 70. The “Pigweed, Palmer plant response rating (0 to 100 scale)” value [10, 29] was 10, the “Oat, Wild plant response rating (0-100)” value [11, 28] was 90 and the “Oat, Wild plant response rating (0 to 100 scale)” value [11, 29] was 90. The “Foxtail, Green plant response rating (0-100)” value [12, 28] was 90, the “Foxtail, Green plant response rating (0 to 100 scale)” value [12, 29] was 90 and the “Blackgrass plant response rating (0-100)” value [13, 28] was 100. For the same compound, the “Blackgrass plant response rating (0 to 100 scale)” value [13, 29] was 90, the “Horseweed plant response rating (0-100)” value [14, 28] was 30 and the “Horseweed plant response rating (0 to 100 scale)” value [14, 29] was 30. For the same compound, the “Ryegrass, Italian plant response rating (0-100)” value [15, 28] was 90, the “Ryegrass, Italian plant response rating (0 to 100 scale)” value [15, 29] was 70 and the “Soybean plant response rating (0-100)” value [16, 28] was 80. The “Soybean plant response rating (0 to 100 scale)” value [16, 29] was 50, the “Corn plant response rating” value ([17]; 16 g ai/ha, 0 to 100 scale) was 10 and the “Corn plant response rating (0-100)” value [17, 30] was 80. The “Barnyardgrass plant response rating” value ([18]; 16 g ai/ha, 0 to 100 scale) was 20, the “Barnyardgrass plant response rating (0-100)” value [18, 30] was 80 and the “Ragweed plant response rating” value ([19]; 16 g ai/ha, 0 to 100 scale) was 0. For the same compound, the “Ragweed plant response rating (0-100)” value [19, 30] was 0, the “Kochia plant response rating” value ([20]; 16 g ai/ha, 0 to 100 scale) was 0 and the “Kochia plant response rating (0-100)” value [20, 30] was 0. The “Wheat plant response rating” value ([21]; 16 g ai/ha, 0 to 100 scale) was 80, the “Wheat plant response rating (0-100)” value [21, 30] was 90 and the “Pigweed, Palmer plant response rating” value ([22]; 16 g ai/ha, 0 to 100 scale) was 0. For the same compound, the “Pigweed, Palmer plant response rating (0-100)” value [22, 30] was 0, the “Oat, Wild plant response rating” value ([23]; 16 g ai/ha, 0 to 100 scale) was 20 and the “Oat, Wild plant response rating (0-100)” value [23, 30] was 80. The “Foxtail, Green plant response rating” value ([24]; 16 g ai/ha, 0 to 100 scale) was 10, the “Foxtail, Green plant response rating (0-100)” value [24, 30] was 90 and the “Blackgrass plant response rating” value ([25]; 16 g ai/ha, 0 to 100 scale) was 0. For the same compound, the “Blackgrass plant response rating (0-100)” value [25, 30] was 80, the “Ryegrass, Italian plant response rating” value ([26]; 16 g ai/ha, 0 to 100 scale) was 30 and the “Ryegrass, Italian plant response rating (0-100)” value [26, 30] was 100. The “Soybean plant response rating” value ([27]; 16 g ai/ha, 0 to 100 scale) was 0 and the “Soybean plant response rating (0-100)” value [27, 30] was 50.
